Our source for the Activity and IC50 values is ChEMBL document CHEMBL1157386, “A C-3 methylated isocembranoid and 10-oxocembranoids from a formosan soft coral, Sinularia grandilobata” (J Nat Prod, 2008).

Structures are written as SMILES. In brackets after ≈: the same amount, converted by molar mass. Activity calls are given as the source filed them. The rule behind the calls is not given here.

For one assay, the system named is HepG2. Description: Cytotoxicity against human HepG2 cells by MTT assay. It is filed as functional, cell-based.
Another assay relates to MCF7. The assay is described as follows: Cytotoxicity against human MCF7 cells by MTT assay. It is filed as functional, cell-based.
The next assay has as its system A549. The assay is described as follows: Cytotoxicity against human A549 cells by MTT assay. It is filed as functional, cell-based. Background: Tetrazolium dyes change colour on reduction, which living cells bring about.
The subject of another assay is MDA-MB-23. The assay is described as follows: (§1) Cytotoxicity against human […] by MTT assay. The class given is functional, cell-based.
Assay [1] concerns RAW264.7. Description: Antiinflammatory activity in LPS-stimulated mouse RAW264.7 cells assessed as reduction of iNOS levels at 50 uM by immunoblot analysis relative to control. It is filed as functional. A general note: A western blot detects proteins with antibodies after separation by electrophoresis.
In assay [2] the test system is RAW264.7. The assay is described as follows: Antiinflammatory activity in LPS-stimulated mouse RAW264.7 cells assessed as reduction of COX2 expression by immunoblot analysis relative to control. The class given is functional, cell-based.
For assay [3], the system named is RAW264.7. The assay is described as follows: Induction of iNOS levels in LPS-stimulated mouse RAW264.7 cells at 50 uM by immunoblot analysis relative to control. The class given is functional.
The test system of assay [4] is RAW264.7. The assay is described as follows: Induction of COX2 expression in LPS-stimulated mouse RAW264.7 cells at 50 uM by immunoblot analysis relative to control. It is filed as functional.
Assay [5] in a line: as §1. The class given is functional, cell-based.

For the molecule `CO[C@@]1(C(C)(C)O)/C=C/[C@](C)(O)CC/C=C(\C)CC(=O)C[C@@H](C)CC1` (relative stereo), the result with HepG2, with MCF7, with A549 and with MDA-MB-23 was inactive.

As for `C/C1=C\CC[C@]2(C)O[C@H]2/C=C(/C(C)(C)O)CC[C@H](C)CC(=O)C1` (relative stereo) [GRANDILOBATIN B], the result in the assay with HepG2, with MCF7, with A549, with MDA-MB-23, in the assay on RAW264.7 [1] and in the assay on RAW264.7 [2] was inactive. For the same molecule, the Activity in the assay with RAW264.7 [3] turned out to be 112.4%; in the assay with RAW264.7 [4], 117.3%.

Take `C/C1=C\CCC(=O)[C@H](C)/C=C(/C(C)(C)O)CC[C@H](C)CC(=O)C1`: the result in the assay on HepG2, in the assay with MCF7, with A549 and with MDA-MB-23 was inactive.

Take `C/C1=C\C=C(\C(C)(C)O)CC[C@H](C)CC(=O)C/C(C)=C/CC1` [GRANDILOBATIN D]: the result in the assay on HepG2, with MCF7, with A549 and in the assay with RAW264.7 [2] was inactive. For the same molecule, the IC50 (usually the point on the concentration scale where inhibition reaches its midpoint) in [5] came out at 15.8 µg/mL (≈ 51.9 µM). Besides, the Activity in the assay with RAW264.7 [1] turned out to be 28.7%.

Take `C/C1=C/C(=O)C[C@@H](C)CC/C(C(C)(C)O)=C\C=C(/C)CCC1`: the result in the assay on HepG2, with MCF7, in the assay on A549 and with MDA-MB-23 was inactive.
